US12319675B2 (Artax Biopharma Inc., priority 2018, dated 2025)
Like-named read-outs stand apart in the source and are kept apart here.

Columns and labels:
[1] = Microsomal stability assay, rat; type: in vitro ADME; details: rat microsomes; for half-life: read-out: Microsomal Stability (T1/2 min) Rat
Protocol: (§1) Microsomal stability assays were performed using mouse, rat, and human […] according to methods well-known in the art. Microsomal stability results are shown in Table 2 for selected compounds of the invention. The compound numbers correspond to the compound numbers in Table 1. […] “N/A” indicates not assayed.

[2] = Microsomal stability assay, mouse; type: in vitro ADME; details: mouse microsomes; for half-life: read-out: Microsomal Stability (T1/2 min) Mouse
Protocol: as §1

[3] = Microsomal stability assay, human; type: in vitro ADME; details: human microsomes; for half-life: read-out: Microsomal Stability (T1/2 min) Human
Protocol: as §1

[4] = target: Nck SH3 domain interaction with the proline rich sequence of TCR subunit CD3ε (Homo sapiens, UniProt P16333); assay: Competitive binding, biosensor with Interferometric Optical Detection Method (IODM); details: ratio of 1:1 between Nck SH3 domain and inhibitors; biotinylated CD3ε peptide on sensing surface
Protocol: Inhibition of Nck SH3 domain interaction with the proline rich sequence of TCR subunit CD3ε was measured by optical read-out of a biosensor based on the Interferometric Optical Detection Method (IODM), using established methods (WO 2010/026269; WO 2014/020159; Laguna, M. et al., Sensors, 2015, 15(8):19819-29; and Holgado, M. et al., Sensors, 2014, 14(2): 3675-89).
Briefly, a Biophotonic Cell (BICELL) based on Fabry-Perot interferometers was used as the photonic transducer. The BICELL was fabricated using SU8 in cyclopentanone according to known methods (e.g., Laguna, M. F. et al., Sensors, 2014, 14(4): 6695-6700). Cured film was then treated with 95% sulfuric acid for 10 seconds. Streptavidin was then immobilized on the sensing surface in phosphate buffered saline (PBS; pH 7.4) over 20 min at 37° C. followed by blocking of the surface with 5% skin milk in PBS (pH 7.4). Biotinylated CD3ε peptide (SEQ ID NO: 001) in PBS (pH 7.4) was incubated with the streptavidin coated film to biofunctionalize the sensing surface (20 min at 37° C.).
Competitive binding assays were performed to determine the affinity reaction of inhibitors. The screening was carried out using a ratio of 1:1 between Nck SH3 domain and inhibitors. The optical readout of the biosensor was accomplished by a Fourier transform visible-infrared (FT-VIS-IR) spectrometer. Competitive binding results are shown in Table 3 for selected compounds of the invention. The compound numbers correspond to the compound numbers in Table 1. Compounds having a designation of “A” provide an Increased Relative Optical Power (ΔIROP) of less than or equal to thirty percent (≤30%); compounds having a designation of “B” provide a ΔIROP of between thirty and fifty percent (>30% to ≤50%); compounds having a designation of “C” provide an ΔIROP of between fifty and seventy percent (>50% to ≤70%); and compounds having a designation of “D” provide a ΔIROP of greater than seventy percent (>70%).

[5] = test system: CD3 mediated phosphorylation of ZAP70 in Jurkat cells; assay: CD3 mediated phosphorylation of ZAP70 in Jurkat cells (HTRF); type: cell-based; details: Jurkat cells stimulated with 20 μg/mL anti-CD3 antibody; for IC50: read-out: pZAP70 Inhibition IC50; for Emax: read-out: pZAP70 Inhibition - Maximum Percent Inhibition (% Inhibition)
Protocol: Inhibition of CD3 mediated phosphorylation of ZAP70 in Jurkat cells was measured by a cellular based Homogeneous Time-Resolved Fluorescence (HTRF) assay utilizing a Total ZAP-70 HTRF kit.
Briefly, Jurkat cells (˜1.3×10^6 cells/mL) were harvested on the day of experimentation. Cells were washed with PBS and resuspended in Assay Buffer (RPMI 1640 media plus 10% FBS) and counted.
Jurkat cells were seeded in Assay media at a total volume of 4 μL/well (40K cells/well) in a 384-low volume white flat bottom plate. The cells were then incubated at 37° C./5% CO2 for 30 minutes. The cells were then treated in duplicate with test compounds (3×) and reference compounds (3×) in a total volume of 4 μL, respectively. A compound dilution scheme is exemplified in FIG. 1.
The plate was then transferred to an incubator maintained at 37° C./5% CO2 for 2 minutes. Following incubation, cells were stimulated with 20 μg/mL of anti-CD3 antibody (1 mg/mL stock) and assay media was used to bring the total well volume 4 μL/well. The plate was then transferred to the incubator maintained at 37° C./5% CO2 for 2.5 minutes. Following incubation, 4 μL of lysis buffer (4×) provided in the kit was added to each well. The plate was then incubated at RT for 1 hour with gentle shaking. Following incubation, 4 μL of detection mix was added to each well and the plate was sealed with a plate sealer and left overnight at RT in the dark.
The Envision reader was set-up for Eu^3+ cryptate and fluorescence emission was read at two different wavelengths (620 nm and 665 nm). • Excitation filter: UV2(TRF) 320 nm • Emission filter: 665 nm • 2nd Emission filter: Europium 615 nm • Measurement height (mm): 6.5 • Excitation light (%): 100 • Delay (μs): 50 • Window time (μs): 400 • Time between flashes (μs): 2000 • Number of flashes: 100 • Number of flashes for 2nd detector: 100
The data is represented by the signal form the two wavelengths:
The ratio of the signal is calculated for each individual well:
The data was plotted using Graph Pad Prism. The significance between untreated vs. treated groups was assessed by One-way ANOVA and Bonferroni posttest comparing all columns in the graph.
ZAP70 IC50 results are shown in Table 6 for select compounds of the invention. The compound numbers correspond to the compound numbers in Table 1. […] “ND” indicates not determined.
ZAP70 percent maximum inhibition results are shown in Table 7 for select compounds of the invention. The compound numbers correspond to the compound numbers in Table 1.

[6] = Homo sapiens, maximum inhibition

| IC50 [5] [nM] | half-life [1] [min] | half-life [2] [min] | half-life [3] [min] | IC50 ([5]; Homo sapiens) [nM] | Compound | Microsomal Stability (T1/2 min) Rat ([1]; half-life) | Microsomal Stability (T1/2 min) Mouse ([2]; half-life) | Microsomal Stability (T1/2 min) Human ([3]; half-life) | ΔIROP (Increased Relative Optical Power) [4] | pZAP70 Inhibition - Maximum Percent Inhibition (% Inhibition) ([5]; maximum inhibition) | Emax [5, 6] [%] |
| --- | --- | --- | --- | --- | --- | --- | --- | --- | --- | --- | --- |
| < 1 | – | – | – | – | 4-((4-(4-fluorophenyl)-6-(trifluoromethoxy)-2H-chromen-3-yl)methyl)morpholine [Compound I-16] | C (a half-life of less than ten (<10) minutes) | B (a half-life of between ten (10) and thirty (30) minutes) | A (a half-life of greater than thirty (>30) minutes) | B (a ΔIROP of between thirty and fifty percent (>30% to ≤50%)) | C (a percent maximum inhibition of between forty and greater than thirty percent (40%≥x>30%)) | – |
| – | < 10 | < 10 | < 10 | – | O=C(C1=C(c2ccc(F)cc2)c2cc(OC(F)F)ccc2OC1)N1CCCC1 [Compound I-1] | – | – | – | C (an ΔIROP of between fifty and seventy percent (>50% to ≤70%)) | – | – |
| – | < 10 | < 10 | 10 to 30 | – | CCNC(=O)C1=C(c2ccc(F)cc2)c2cc(OC(F)F)ccc2OC1 [Compound I-2] | – | – | – | C (an ΔIROP of between fifty and seventy percent (>50% to ≤70%)) | – | – |
| – | < 10 | < 10 | 10 to 30 | < 1 | CN1CCN(C(=O)C2=C(c3ccc(F)cc3)c3cc(OC(F)F)ccc3OC2)CC1 [Compound I-3] | – | – | – | B (a ΔIROP of between thirty and fifty percent (>30% to ≤50%)) | – | ≤ 30 |
| – | 10 to 30 | 10 to 30 | > 30 | – | CN(C)CCNC(=O)C1=C(c2ccc(F)cc2)c2cc(OC(F)F)ccc2OC1 [Compound I-4] | – | – | – | B (a ΔIROP of between thirty and fifty percent (>30% to ≤50%)) | – | – |
| – | 10 to 30 | 10 to 30 | 10 to 30 | – | Fc1ccc(C2=C(CN3CCOCC3)COc3ccc(OC(F)F)cc32)cc1 [Compound I-5] | – | – | – | B (a ΔIROP of between thirty and fifty percent (>30% to ≤50%)) | – | – |
| – | < 10 | > 30 | > 30 | – | CCNCC1=C(c2ccc(F)cc2)c2cc(OC(F)F)ccc2OC1 [Compound I-6] | – | – | – | C (an ΔIROP of between fifty and seventy percent (>50% to ≤70%)) | – | – |
| – | < 10 | < 10 | > 30 | – | CCNC(=O)C1=C(c2ccc(F)cc2)c2cc(OC(F)(F)F)ccc2OC1 [Compound I-8] | – | – | – | B (a ΔIROP of between thirty and fifty percent (>30% to ≤50%)) | – | – |
| – | < 10 | 10 to 30 | 10 to 30 | – | CN1CCN(C(=O)C2=C(c3ccc(F)cc3)c3cc(OC(F)(F)F)ccc3OC2)CC1 [Compound I-9] | – | – | – | D (a ΔIROP of greater than seventy percent (>70%)) | – | – |
| – | > 30 | > 30 | > 30 | – | CN(C)CCNC(=O)C1=C(c2ccc(F)cc2)c2cc(OC(F)(F)F)ccc2OC1 [Compound I-10, N-(2-(dimethylamino)ethyl)-4-(4-fluorophenyl)-6-(trifluoromethoxy)-2H-chromene-3-carboxamide] | – | – | – | A (an Increased Relative Optical Power (ΔIROP) of less than or equal to thirty percent (≤30%)) | – | – |
| – | > 30 | > 30 | 10 to 30 | – | Fc1ccc(C2=C(c3nc(-c4ccccc4)no3)COc3ccc(OCC4CC4)cc32)cc1 [Compound I-12] | – | – | – | C (an ΔIROP of between fifty and seventy percent (>50% to ≤70%)) | – | ≤ 30 |
| – | < 10 | < 10 | 10 to 30 | 1 to 10 | [2H]C([2H])([2H])Oc1ccc2c(c1)C(c1ccc(F)cc1)=C(CN1CCCC1)CO2 [Compound I-13] | – | – | – | A (an Increased Relative Optical Power (ΔIROP) of less than or equal to thirty percent (≤30%)) | – | 40 to 50 |
| – | 10 to 30 | > 30 | > 30 | – | Fc1ccc(C2=C(CN3CCCC3)COc3ccc(C(F)(F)F)cc32)cc1 [Compound I-17, 1-((4-(4-fluorophenyl)-6-(trifluoromethyl)-2H-chromen-3-yl)methyl)pyrrolidine] | – | – | – | C (an ΔIROP of between fifty and seventy percent (>50% to ≤70%)) | – | – |
| – | < 10 | < 10 | 10 to 30 | – | CN1CCN(C(=O)C2=C(c3ccc(F)cc3)c3cc(Cl)ccc3OC2)CC1 [Compound I-25] | – | – | – | B (a ΔIROP of between thirty and fifty percent (>30% to ≤50%)) | – | – |
| – | < 10 | < 10 | 10 to 30 | – | CN1CCN(C(=O)C2=C(c3ccc(F)cc3)c3cc(C(F)(F)F)ccc3OC2)CC1 [Compound I-26, (4-(4-fluorophenyl)-6-(trifluoromethyl)-2H-chromen-3-yl)(4-methylpiperazin-1-yl)methanone] | – | – | – | C (an ΔIROP of between fifty and seventy percent (>50% to ≤70%)) | – | – |
| – | < 10 | < 10 | < 10 | – | COc1ccc2c(c1)C(c1ccc(Cl)cc1)=C(C(=O)N1CCN(C)CC1)CO2 [Compound I-28] | – | – | – | D (a ΔIROP of greater than seventy percent (>70%)) | – | – |
| – | 10 to 30 | < 10 | < 10 | – | COc1ccc2c(c1)C(c1ccc(C(F)(F)F)cc1)=C(C(=O)N1CCN(C)CC1)CO2 [Compound I-29] | – | – | – | B (a ΔIROP of between thirty and fifty percent (>30% to ≤50%)) | – | – |
| – | < 10 | < 10 | 10 to 30 | – | COc1ccc2c(c1)C(c1cccc(F)c1)=C(C(=O)N1CCN(C)CC1)CO2 [Compound I-31] | – | – | – | C (an ΔIROP of between fifty and seventy percent (>50% to ≤70%)) | – | – |
| – | < 10 | 10 to 30 | 10 to 30 | – | N#CCCOc1ccc2c(c1)C(c1ccc(F)cc1)=C(CN1CCCC1)CO2 [Compound I-32, 3-((4-(4-fluorophenyl)-3-(pyrrolidin-1-ylmethyl)-2H-chromen-6-yl)oxy)propanenitrile] | – | – | – | B (a ΔIROP of between thirty and fifty percent (>30% to ≤50%)) | – | – |
